From patent publication US10399932B2, “Inhibitors of indoleamine-2,3-dioxygenase for the treatment of cancer” (BRISTOL-MYERS SQUIBB COMPANY, priority 2015, dated 2019)

molecular target: human IDO1 (Homo sapiens, UniProt P14902); test: Assessment of human IDO-1 inhibitory activity in HEK cells (human IDO1/HEK293 cells, Ehrlich reagent, absorbance at 490 nm); type: cell-based; parameters: expressed in transfected cells; details: In Vitro Potency in the HEK Human IDO-1 Cellular Assay
How it was run: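 Stable human IDO1-expressing HEK293 cells treated with compound for 20 h at 37 °C in phenol red-free RPMI/10% FBS. Stopped with 0.2% TCA (final) and heated 30 min at 50 °C; supernatant mixed with Ehrlich reagent, absorbance read at 490 nm. IC50 normalised to DMSO (0%) and 500 nM reference standard (100% inhibition).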

Chain of human IDO1 (P14902 whole entry): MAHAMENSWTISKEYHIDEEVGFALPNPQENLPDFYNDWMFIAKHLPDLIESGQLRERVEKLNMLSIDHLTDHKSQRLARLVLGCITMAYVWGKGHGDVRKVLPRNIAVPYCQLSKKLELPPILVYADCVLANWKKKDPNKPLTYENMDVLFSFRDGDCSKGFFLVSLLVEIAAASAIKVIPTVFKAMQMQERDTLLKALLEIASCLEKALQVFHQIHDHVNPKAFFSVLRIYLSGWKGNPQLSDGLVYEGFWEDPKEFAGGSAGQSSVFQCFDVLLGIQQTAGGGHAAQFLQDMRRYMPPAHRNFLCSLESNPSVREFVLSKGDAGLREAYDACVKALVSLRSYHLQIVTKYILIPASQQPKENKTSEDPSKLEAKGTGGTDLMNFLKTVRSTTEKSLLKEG

SMILES | IC50 [nM]
CCc1ccc(Nc2cc(C(C)CC(=O)O)ccc2N2C[C@@H](C)O[C@@H](C)C2)cc1 (single isomer, unassigned) [Example 746] | > 50
CCc1ccc(Nc2cc([C@@H](CC)CC(=O)O)ccc2N(CC(C)(C)O)C2CCCCC2)cc1 (single isomer, unassigned) [Example 228] | < 5
CCC(CC(=O)O)c1ccc(N2CCC[C@@H]2C(C)(C)O)c(NC(=O)Nc2ccc(C)cc2)c1 (single isomer, unassigned) [Example 779] | > 50
CC(C)CN(CC(C)C)c1c(F)cc(C(CC(=O)O)c2ccccc2)cc1Nc1ccc(Cl)cc1 (single isomer, unassigned) [Example 131, 3-(3-((4-chlorophenyl)amino)-4-(diisobutylamino)-5-fluorophenyl)-3-phenylpropanoic acid] | < 50
COCC(CC(=O)O)c1ccc(N(CC(C)C)CC(C)C)c(NC(=O)Nc2cc(C)on2)c1 (single isomer, unassigned) [Example 999-2] | < 50
CC[C@@H](CC(=O)O)c1ccc(N(CC(C)C)C2CCS(=O)(=O)CC2)c(NC(=O)Nc2cc(C)on2)c1 (single isomer, unassigned) [Example 218] | > 50
COCC(CC(=O)O)c1ccc(N(CC(C)C)C2CCCCC2)c(NC(=O)Cc2ccc(C)cc2)c1 (single isomer, unassigned) [Example 1240, 3-(4-(Cyclohexyl(isobutyl)amino)-3-(2-(p-tolyl)acetamido)phenyl)-4-methoxybutanoic acid] | < 50
CCC(CC(=O)O)c1ccc(N2CCC[C@H]2C(C)(C)O)c(NC(=O)Nc2ccc(OC)cc2)c1 (single isomer, unassigned) [Example 827] | > 50
CCC(CC(=O)O)c1ccc(N2CC3CC2CN3Cc2ccccc2)c(NC(=O)Nc2ccc(C)cc2)c1 (single isomer, unassigned) [667 E2] | > 50
COCC(CC(=O)O)c1ccc(N(CC(C)C)C2CCCCC2)c(NC(=O)Nc2ccc(C)cc2)c1 (single isomer, unassigned) [Example 989-2] | < 5
CCC(CC(=O)O)c1ccc(N2CCC[C@H]2C(C)(C)O)c(NC(=O)Nc2ccc(F)cc2)c1 (single isomer, unassigned) [Example 829] | > 50
CC(CC(=O)O)c1ccc(N2CCC[C@H]2C(C)(C)O)c(Nc2ccc(F)cc2)c1 (single isomer, unassigned) [Example 803] | > 50
Cc1ccc(NC(=O)Nc2cc(C(C)CC(=O)O)c(F)cc2N(CC(C)C)C2CCCCC2)cc1 (single isomer, unassigned) [Example 957, 3-(4-(Cyclohexyl(isobutyl)amino)-2-fluoro-5-(3-(p-tolyl)ureido)phenyl)butanoic acid] | < 5
CCOc1cc(Nc2cc(C(CC)CC(=O)O)ccc2N(CC(C)C)C2CCCCC2)ccc1Cl (single isomer, unassigned) [Example 646, 3-(3-((4-chloro-3-ethoxyphenyl)amino)-4-(cyclohexyl(isobutyl)amino)phenyl)pentanoic acid] | < 5
CCOc1ccc(NC(=O)Nc2cc(C(CC(=O)O)C3CC3)ccc2N(CC(C)C)C2CCOCC2)cc1 (single isomer, unassigned) [Example 1205 Enantiomer 2, 3-Cyclopropyl-3-(3-(3-(4-ethoxyphenyl)ureido)-4-(isobutyl(tetrahydro-2H-pyran-4-yl)amino)phenyl)propanoic acid] | < 50
COCC(CC(=O)O)c1cc(F)c(N(CC(C)C)C2CCCCC2)c(NC(=O)Cc2ccc(C)cc2)c1 (single isomer, unassigned) [Example 1174, 3-(4-(cyclohexyl(isobutyl)amino)-3-fluoro-5-(2-(p-tolyl)acetamido)phenyl)-4-methoxybutanoic acid] | < 50
CCC(CC(=O)O)c1ccc(N2CCC[C@@H]2C(C)(C)O)c(NC(=O)Nc2ccc(Cl)cc2F)c1 (single isomer, unassigned) [Example 776] | > 50
CCC(CC(=O)O)c1cc(F)c(N(CC(C)C)CC(C)C)c(NC(=O)Nc2ccc(Cl)cc2F)c1 (single isomer, unassigned) [Example 981-2] | < 5
CCC(CC(=O)O)c1ccc(N(CC(C)C)C2CCCCC2)c(NC(=O)Cc2ccc(C)cc2)c1 (racemic) [Example 1084] | < 5
Cc1ccc(CC(=O)Nc2cc(C(CC(=O)O)C(C)C)ccc2N(C)C(C)(C)C)cc1 (single isomer, unassigned) [Example 1007-2] | > 50
COCC(CC(=O)O)c1cc(F)c(N(CC(C)C)CC(C)C)c(NC(=O)Cc2ccc(Cl)cc2F)c1 (single isomer, unassigned) [Example 1187, 3-(3-(2-(4-Chloro-2-fluorophenyl)acetamido)-4-(diisobutylamino)-5-fluorophenyl)-4-methoxybutanoic acid] | < 5
CCC(CC(=O)O)c1cc(F)c(N(CC(C)C)CC(C)C)c(NC(=O)Cc2ccc(C)cc2)c1 (single isomer, unassigned) [Example 980-2] | < 5
CCC(CC(=O)O)c1cc(NC(=O)Nc2ccc3c(c2)OCO3)c(N(CC(C)C)C2CCCCC2)cc1F (single isomer, unassigned) [Example 1112, 3-(5-(3-(Benzo[d][1,3]dioxol-5-yl)ureido)-4-(cyclohexyl(isobutyl)amino)-2-fluorophenyl)pentanoic acid] | < 5
Cc1ccc(NC(=O)Nc2cc(C(C)CC(=O)O)ccc2N(CC(C)C)C2CCOCC2)cc1 (single isomer, unassigned) [Example 965, 3-(4-(isobutyl(tetrahydro-2H-pyran-4-yl)amino)-3-(3-(p-tolyl)ureido)phenyl)butanoic acid] | < 50
COCC(CC(=O)O)c1ccc(N(CC(C)C)C2CCC(OC)CC2)c(NC(=O)Nc2ccc(C)cc2)c1 (racemic) [Example 1147] | < 50

Results, then the molecule that gave them:

IC50 [nM] | SMILES
< 5 | CCOc1ccc(NC(=O)Nc2cc(C(COC)CC(=O)O)cc(F)c2N(CC(C)C)C2CCCCC2)c(F)c1 (single isomer, unassigned) [Example 1165, 3-(4-(cyclohexyl(isobutyl)amino)-3-(3-(4-ethoxy-2-fluorophenyl)ureido)-5-fluorophenyl)-4-methoxybutanoic acid]
< 5 | CCC(CC(=O)O)c1cc(NC(=O)Nc2ccc3c(c2)OCO3)c(N(CC(C)C)CC(C)C)cc1F (single isomer, unassigned) [Example 1136, 3-(5-(3-(Benzo[d][1,3]dioxol-5-yl)ureido)-4-(diisobutylamino)-2-fluorophenyl) pentanoic acid]
< 5 | COCC(CC(=O)O)c1cc(F)c(N(CC(C)C)CC(C)C)c(NC(=O)Nc2ccc(Cl)cc2F)c1 (single isomer, unassigned) [Example 1195, 3-(3-(3-(4-Chloro-2-fluorophenyl)ureido)-4-(diisobutylamino)-5-fluorophenyl)-4-methoxybutanoic acid]
< 5 | COCC(CC(=O)O)c1cc(F)c(N(CC(C)C)CC(C)C)c(NC(=O)Nc2ccc(OC)cc2F)c1 (single isomer, unassigned) [Example 1189, 3-(4-(Diisobutylamino)-3-fluoro-5-(3-(2-fluoro-4-methoxyphenyl)ureido)phenyl)-4-methoxybutanoic acid]
< 5 | CC(C)CN(c1ccc(C(CC(=O)O)C2CC2)cc1NC(=O)Nc1ccc(Cl)cc1F)C1CCOCC1 (single isomer, unassigned) [Example 1199 Enantiomer 2, 3-(3-(3-(4-Chloro-2-fluorophenyl)ureido)-4-(isobutyl(tetrahydro-2H-pyran-4-yl)amino)phenyl)-3-cyclopropylpropanoic acid]
< 5 | CCC(CC(=O)O)c1cc(F)c(N(CC(C)C)CC(C)C)c(Nc2ccc(Cl)cc2)c1 (single isomer, unassigned) [Example 115, 3-(3-((4-chlorophenyl)amino)-4-(diisobutylamino)-5-fluorophenyl)pentanoic acid]
< 5 | CCOc1ccc(NC(=O)Nc2cc(C(CC)CC(=O)O)c(F)cc2N(CC(C)C)CC(C)C)cc1 (single isomer, unassigned) [Example 1133, 3-(4-(Diisobutylamino)-5-(3-(4-ethoxyphenyl)ureido)-2-fluorophenyl)pentanoic acid]
< 5 | CCC(CC(=O)O)c1cc(NC(=O)Nc2cc(C)no2)c(N(CC(C)C)C2CCCCC2)cc1F (single isomer, unassigned) [Example 1115, 3-(4-(Cyclohexyl(isobutyl)amino)-2-fluoro-5-(3-(3-methylisoxazol-5-yl)ureido)phenyl)pentanoic acid]
< 5 | CCOc1ccc(NC(=O)Nc2cc(C(CC)CC(=O)O)c(F)cc2N(CC(C)C)CC(C)C)c(F)c1 (single isomer, unassigned) [Example 1139, 3-(4-(Diisobutylamino)-5-(3-(4-ethoxy-2-fluorophenyl)ureido)-2-fluorophenyl) pentanoic acid]
< 5 | CCOc1ccc(NC(=O)Nc2cc(C(CC)CC(=O)O)c(F)cc2N(CC(C)C)C2CCCCC2)c(F)c1 (single isomer, unassigned) [Example 1118, 3-(4-(Cyclohexyl(isobutyl)amino)-5-(3-(4-ethoxy-2-fluorophenyl)ureido)-2-fluorophenyl)pentanoic acid]
< 5 | CCC(CC(=O)O)c1cc(NC(=O)Nc2cncnc2)c(N(CC(C)C)C2CCCCC2)cc1F (single isomer, unassigned) [Example 1124, 3-(4-(Cyclohexyl(isobutyl)amino)-2-fluoro-5-(3-(pyrimidin-5-yl)ureido)phenyl)pentanoic acid]
< 5 | CCC(CC(=O)O)c1cc(F)c(N(CC(C)C)CC(C)C)c(NC(=O)Nc2ccc(C)c(F)c2)c1 (single isomer, unassigned) [Example 982-2]
< 5 | CCC(CC(=O)O)c1ccc(N(CC2CC2)C2CCOCC2)c(Nc2cnc(OC)nc2)c1 (single isomer, unassigned) [Example 709, 3-(4-((cyclopropylmethyl)(tetrahydro-2H-pyran-4-yl)amino)-3-((2-methoxypyrimidin-5-yl)amino)phenyl)pentanoic acid]
